Source: ChEMBL document CHEMBL4028817, “Indole-TEMPO conjugates alleviate ischemia-reperfusion injury via attenuation of oxidative stress and preservation of mitochondrial function” (Bioorg Med Chem, 2017)
Active and inactive are the calls of the source. The rule behind the calls is not given here.

Tests used:
[1] = test system: Mus musculus; test: Anti-inflammatory activity in ICR mouse assessed as inhibition of xylene induced ear edema at 20 mg/kg pretreated orally for 30 mins followed by xylene challenge measured after 2 hrs relative to control; format: functional; conditions: po
[2] = test system: Mus musculus; test: Anti-inflammatory activity in xylene induced ICR mouse ear edema model assessed as edema weight at 20 mg/kg, po pretreated 30 mins followed by xylene challenge measured after 2 hrs (reference value: 4.07 +/- 0.51 mg); format: functional
[3] = test system: Mus musculus; test: Anti-inflammatory activity in ICR mouse assessed as inhibition of xylene induced ear edema at 0.10 mmol/kg pretreated orally for 30 mins followed by xylene challenge measured after 2 hrs relative to control; format: functional; conditions: po
[4] = test system: Mus musculus; test: Anti-inflammatory activity in xylene induced ICR mouse ear edema model assessed as edema weight at 0.10 mmol/kg, po pretreated 30 mins followed by xylene challenge measured after 2 hrs (reference value: 4.07 +/- 0.51 mg); format: functional
[5] = test system: Mus musculus; test: Toxicity in mouse assessed as tail bleeding time at 0.50 mmol/kg, po administered 30 mins prior to tail transection measured every 30 secs (reference value: 120.5 +/- 7.9 sec); format: organism-based; conditions: in vivo
[6] = test system: Mus musculus; test: Toxicity in mouse assessed as tail bleeding time at 0.50 mmol/kg, po administered 45 mins prior to tail transection measured every 30 secs (reference value: 119.8 +/- 8.4 sec); format: organism-based; conditions: in vivo
[7] = test system: Mus musculus; test: Toxicity in mouse assessed as tail bleeding time at 0.50 mmol/kg, po administered 60 mins prior to tail transection measured every 30 secs (reference value: 120.4 +/- 7.9 sec); format: organism-based; conditions: in vivo
[8] = test system: Mus musculus; test: Toxicity in mouse assessed as tail bleeding time at 0.50 mmol/kg, po administered 90 mins prior to tail transection measured every 30 secs (reference value: 119.3 +/- 7.7 sec); format: organism-based; conditions: in vivo
[9] = test system: HUVEC; test: Protection against simulated ischemia/reperfusion injury-induced cell death in HUVEC assessed as increase in cell viability at 30 ug/ml treated for 12 hrs under normoxic condition prior to simulated ischemia for 2 hrs followed by compound washout measured 3 hrs post reperfusion; format: functional, cell-based; conditions: Homo sapiens
[10] = test system: HUVEC; test: Protection against simulated ischemia/reperfusion injury induced mitochondrial oxidative damage in HUVEC assessed as decrease in mitochondrial reactive oxygen species level at 30 ug/ml pretreated for 12 hrs followed by compound washout and subsequent ischemia simulation for 2 hrs in presence of compound prior to 3 hrs reperfusion under drug free medium by MitoProbe based confocal microscopic analysis; format: functional, cell-based; conditions: Homo sapiens
[11] = test system: HUVEC; test: Protection against simulated ischemia and reperfusion injury induced mitochondrial oxidative damage in HUVEC assessed as reduction in cytochrome c release at 30 ug/ml treated for 12 hrs under normoxic condition prior to simulated ischemia for 2 hrs followed by compound washout measured 3 hrs post reperfusion by MitoProbe based immuno-fluorescence assay (reference value: 71.2 +/- 4.5%); format: functional, Homo sapiens; set-up: scale not given: the % may be the effect or the level left
[12] = test system: Rattus norvegicus; test: (§1) Protection against ischemia/reperfusion induced Wistar rat intestinal injury model assessed as reduction in denudation of villous tips at 30 mg/kg administered as bolus dose pretreated for 5 mins followed by 12 hrs reperfusion and subsequent compound treatment at 10 mg/kg administered at 1 hr interval during reperfusion period by hematoxylin-eosin/trichrome/NADH-diaphorase staining based histopathological analysis; format: functional, organism-based
[13] = test system: Rattus norvegicus; test: as §1, with “ischemia/reperfusion-induced” for “ischemia/reperfusion induced”, “well-preserved glandular architecture” for “reduction in denudation of villous tips”, “addition” for “treatment”; format: functional, organism-based
[14] = test system: Rattus norvegicus; test: Protection against ischemia/reperfusion-induced Wistar rat intestinal injury model assessed as reduction in lipid peroxidation by measuring lipid peroxide levels at 30 mg/kg administered as bolus dose pretreated for 5 mins followed by 12 hrs reperfusion and subsequent compound addition at 10 mg/kg administered at 1 hr interval during reperfusion period measured at 1.5 to 12 hrs post reperfusion by spectrophotometric method; format: functional, organism-based
[15] = test system: Rattus norvegicus; test: Protection against ischemia/reperfusion-induced Wistar rat intestinal injury model assessed as effect on TNFalpha levels at 30 mg/kg administered as bolus dose pretreated for 5 mins followed by 12 hrs reperfusion and subsequent compound addition at 10 mg/kg administered at 1 hr interval during reperfusion period by ELISA (reference value: 62.9 +/- 8.7 pg/ml); format: functional
[16] = test system: Rattus norvegicus; test: Protection against ischemia/reperfusion-induced Wistar rat intestinal injury model assessed as reduction in mitochondrial oxidative damage at 30 mg/kg administered as bolus dose pretreated for 5 mins followed by 12 hrs reperfusion and subsequent compound addition at 10 mg/kg administered at 1 hr interval during reperfusion period by Mitoprobe staining based assay; format: functional, organism-based
[17] = test system: HUVEC; test: Protection against simulated ischemia/reperfusion injury induced mitochondrial oxidative damage in HUVEC assessed as increase in tubular mitochondrial cells at 30 ug/ml pretreated for 12 hrs followed by compound washout and subsequent ischemia simulation for 2 hrs in presence of compound prior to 3 hrs reperfusion under drug free medium by MitoProbe based confocal microscopic analysis; format: functional, cell-based; conditions: Homo sapiens
[18] = test system: Rattus norvegicus; test: as §1, with “induecd” for “induced”, “decrease” for “reduction”, “mucosal neutrophil infiltration” for “denudation of villous tips”, “addition” for “treatment”; format: functional, organism-based
[19] = test system: Mus musculus; test: Anti-inflammatory activity in ICR mouse assessed as inhibition of xylene induced ear edema pretreated orally for 30 mins followed by xylene challenge measured after 2 hrs; format: functional
[20] = test system: Mus musculus; test: Anti-inflammatory activity in ICR mouse assessed as inhibition of xylene induced ear edema at 0.02 mmol/kg, po pretreated for 30 mins followed by xylene challenge measured after 2 hrs; format: functional, organism-based

Compound | inhibition in vivo at 20 mg/kg [1] | Activity [2] | inhibition in vivo at 100 µmol/kg [3] | Activity [4] | Time [5] | Time [6] | Time [7] | Time [8] | Activity [9] | Activity [10] | Activity [11] | Activity [12] | Activity [13] | Activity [14] | Activity [15] | Activity [16] | Activity [17] | Activity [18] | inhibition [19] | inhibition [20]
CC(=O)Oc1ccccc1C(=O)O [ASPIRIN] | 47.1% | 2.15 mg | – | – | – | – | – | – | – | – | – | – | – | – | – | – | – | – | – | –
CC1(C)CC(n2cc(CNC(=O)CC[C@@H](NC(=O)[C@@H]3Cc4c([nH]c5ccccc45)CN3C(=O)[C@@H]3Cc4c([nH]c5ccccc45)CN3)C(=O)NCc3cn(C4CC(C)(C)N([O])C(C)(C)C4)nn3)nn2)CC(C)(C)N1[O] | – | – | 80.3% | 0.8 mg | 116.6 s | 117.1 s | 119 s | 118.3 s | Active | Active | 23.1% | Active | Active | Active | 19 pg/mL | Active | Active | Active | Dose-dependent effect | Active
